The values below come from patent US20240140983A1, “SINGLE STRANDED DNA ENZYME INHIBITORS” (MASSEY UNIVERSITY, priority 2021, published 2024).

Broadly, the Ki is a dissociation constant, usually derived from enzyme kinetics or from competition with a known ligand. A higher Ki goes with lower affinity. As usually defined, the Vmax is the rate approached at saturating substrate. What is called Kd is the equilibrium constant for the complex coming apart. A low value points to tighter binding. As a reminder, the Km is the substrate concentration at which the rate is half of its maximum. In general, kcat refers to the number of substrate molecules converted per active site and unit of time at saturation.

Experiment [1] has as its target human CDA (Homo sapiens, UniProt P32320). Kind of experiment: UV-Vis based deamination assay against human CDA. The format is biochemical. Particulars: 27 nM human CDA; for Ki: 2 mM dC, absorbance at 286 nm, Lambert's W function. The protocol: FIG. 12 is a graph showing the initial rate of human CDA-catalysed deamination of 2′-deoxycytidine (dC) in the absence (no inhibitor) and presence of dZ, 34R and 34S. Conditions: 100 μM dC as a substrate, using different concentrations of inhibitors, 27 nM human CDA in 20 mM Na-phosphate buffer, pH 6.0 supplemented with 100 mM NaCl at 25° C. Absorbance was measured at 286 nm at the start of deamination. Samples labelled as “preincubated” refer to experiments when the enzyme was preincubated for 5 min with inhibitors and then 100 μM dC was added.
The seven-membered ring-containing nucleosides synthesized were tested for their inhibition potential against human CDA enzyme by a UV-Vis based deamination assay. All data were obtained by monitoring absorbance of 2′-deoxycytidine at 286 nm and 25° C., where the deamination of cytosine leads to a decrease in absorption. For nucleosides 34R and 34S, the condition of the assay used was 27 nM human CDA and 100 μM dC as a substrate in 20 mM Na-phosphate buffer, 100 mM NaCl at pH 6.0; an average of 8 measurements was done for each nucleoside. As the original 7-membered ring nucleosides were reported as slow-binding inhibitors of CDA,^10 preincubation conditions of an inhibitor with CDA were also tested for the assay and labelled as ‘preincubation’. Here, the nucleosides were preincubated with the enzyme for 5 min and then 100 μM dC substrate was added to start the measurements (FIG. 12).

In experiment [2] the target is T1, wild-type APOBEC3A (Homo sapiens, UniProt P31941).
T1 construct: His7 (C); made in house
T1 sequence (P31941 whole entry): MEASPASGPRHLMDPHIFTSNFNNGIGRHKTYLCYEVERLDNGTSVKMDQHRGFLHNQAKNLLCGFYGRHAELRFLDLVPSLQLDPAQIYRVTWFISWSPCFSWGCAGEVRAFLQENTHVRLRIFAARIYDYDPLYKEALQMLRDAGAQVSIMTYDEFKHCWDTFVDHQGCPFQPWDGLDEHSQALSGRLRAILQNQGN
Nature of the experiment: NMR assay: wild-type APOBEC3A-catalysed deamination of dC-hairpin-3, Lambert's W function. The format is biochemical. The conditions noted are these: pH 7.4, 140 nM enzyme, 500 μM dC-hairpin-3. The method, then:
Inhibitors were tested in the NMR assay monitoring APOBEC3A-catalysed deamination of dC-hairpin-3. Deamination data was analysed using Lambert's W function as described in Example 5.

The subject of experiment [3] is A3BCTD-QM-ΔL3-AL1swap. Nature of the experiment: NMR assay: inhibition of A3BCTD-QM-ΔL3-AL1swap-catalyzed deamination of a linear substrate (initial rates). Format: biochemical, human. The conditions noted are these: for Ki / Vmax: 5′-AT3dCAT3 substrate, 50 nM enzyme; for inhibition effect: Km of 5′-AT3dCAT3 (150 μM) compared with apparent Ki: non-linear regression analysis. The protocol:
FIG. 6. is a set of graphs showing inhibition of A3BCTD-QM-ΔL3-AL1swap-catalyzed deamination of 5′-T4CAT by dZ/FdZ-containing linear and cross-linked oligos. Initial rate of deamination was measured under the following experimental conditions: 400 μM of 5′-T4CAT, 8 μM (A, B) or 4 μM (C) of dZ/FdZ-containing oligos, 300 nM (A, B) or 200 nM (C) of A3BCTD-QM-ΔL3-AL1swap in a 50 mM sodium phosphate buffer (pH 6.0) containing 100 mM NaCl, 2.5 mM β-mercaptoethanol, 0.1 M EDTA, 50 μM 3-(trimethylsilyl)-2,2,3,3-tetradeuteropropionic acid (TSP) at 25° C. Error bars are estimated standard deviations from triplicate measurements.
FIG. 13 is a graph showing the inhibition of A3BCTD-QM-ΔL3-AL1swap-catalyzed deamination of 5′-T4CAT by linear oligos containing dZ, 34R, 34S and 46. Initial rate of deamination was measured under the following experimental conditions: 400 μM of 5′-T4CAT, at oligo concentration as indicated, 300 nM of A3BCTD-QM-ΔL3-AL1swap in a 50 mM sodium phosphate buffer (pH 6.0) containing 100 mM NaCl, 2.5 mM β-mercaptoethanol, 0.1 M EDTA, 50 μM 3-(trimethylsilyl)-2,2,3,3-tetradeuteropropionic acid (TSP) and 20% D2O at 25° C. Error bars are estimated standard deviations from triplicate measurements.
The inhibition potential of cross-linked oligos was investigated by changing dC to dZ or FdZ in these constructs. The NMR assay described in Example 4 was used to compare the internally cross-linked dZ/FdZ-containing oligos with a linear DNA inhibitor containing dZ/FdZ (dZ-linear is 5′-AT3dZAT3, FdZ-linear is 5′-AT3FdZAT3) that were characterized earlier.^1-2 Residual activity of A3BCTD-QM-ΔL3-AL1swap on the unmodified oligo (5′-T4dCAT) as a substrate in the presence of a known concentration of dZ/FdZ-containing inhibitors (linear and cross-linked) was measured using NMR assay.
(§1) For determination of inhibition constants (KI) of inhibitors the inventors first evaluated kinetic parameters of A3BCTD-QM-ΔL3-AL1swap on two DNA substrates (Table 5), which were used to detect the residual deamination rate in the presence of inhibitors (Table 6). Fitting the experimental data by non-linear least squares using a global fit provided similar values of kinetic parameters to those obtained by the linearized Lineweaver-Burk plot (Table 5). Then, the inhibition constants for strongest cross-linked inhibitors were calculated by several methods assuming a competitive mode of inhibition^1 (Table 6) based on experiments in which the concentration of the individual inhibitor was varied, and the residual deamination initial rate was measured.
Residual activity of A3BCTD-QM-ΔL3-AL1swap on the unmodified oligo (5′-T4CAT) as a substrate in the presence of a known concentration of inhibitors was measured using the NMR assay as described in Example 5.

For experiment [4], the target named is A3BCTD-QM-ΔL3-AL1swap. Kind of experiment: Isothermal titration calorimetry (ITC), binding to A3BCTD-QM-ΔL3-AL1swap. The conditions noted are these: ITC buffer 3 (Na+/K+ phosphate, pH 6.0, 200 mM trimethylamine N-oxide), 25° C. Details: species or system human. The source says:
(§2) The inventors used isothermal titration calorimetry (ITC) to determine binding of the cross-linked oligos to A3 enzymes, specifically to A3A-E72A, where the active-site glutamic acid is replaced with alanine, and to the catalytically competent A3BCTD-QM-ΔL3-AL1swap and compared this binding to that of linear oligos.
For oligos containing dZ, catalytically active A3BCTD-QM-ΔL3-AL1swap was used, as it has the active-site glutamic acid required for protonation of N3 in dZ, which activates C4 in dZ to accept nucleophilic OH^−/H2O coordinated to the Zn^2+, which converts dZ into a transition-state or an intermediate analogue of cytidine deamination.^8
For A3BCTD-QM-ΔL3-AL1swap we used ITC buffer 3: 50 mM Na^+/K^+ phosphate, pH 6.0, 200 mM trimethylamine N-oxide dihydrate, 2.5 mM TCEP, 200 μM EDTA. Data evaluation was performed with the software provided by the supplier of MicroCal ITC200.

In experiment [5] the test system is A3BCTD-QM-ΔL3-AL1swap. Nature of the experiment: Real-time NMR assay: deamination of DNA substrates by A3BCTD-QM-ΔL3-AL1swap. The format is biochemical, human. The method, then: FIG. 5 is a set of graphs showing the initial rate of A3BCTD-QM-ΔL3-AL1swap catalyzed deamination of terminally (A), internally (B-D) cross-linked oligos and a dC-hairpin in comparison with the linear substrate. Substrate concentrations are 100 μM in (A and B), 800 μM in (C) and 400 μM in (D). Enzyme concentrations are 50 nM in (A and B) and 300 nM in (C) and 100 nM in (D). Buffers are 50 mM citrate-phosphate (pH 5.5 for A-C) and 50 mM Na-phosphate (pH 6.0 for D), 200 mM NaCl, 2 mM β-mercaptoethanol, 200 μM 4,4-dimethyl-4-silapentane-1-sulfonic acid (DSS) and 10% D2O at 25° C. Error bars are estimated standard deviations from triplicate measurements.
Real-time NMR assays are advantageous because they are direct, utilizing only A3 enzymes and oligos in a suitable buffer system, in contrast to many fluorescence-based assays where a secondary enzyme and a fluorescently modified oligo are used. The NMR-based assay described herein allows a Michaelis-Menten kinetic model to be used to characterize both A3 substrates and inhibitors based on direct determination of the initial velocity of deamination of various ssDNA substrates (including modified substrates) in the presence of A3 enzymes.
The A3 enzyme used in the experiments detailed herein is the well-characterized and very active A3BCTD-QM-ΔL3-AL1swap,^1 where loop 3 is deleted and loop 1 is replaced with the corresponding loop 1 from A3A in addition to four point mutations remote to the enzyme's active site. […] Recent work by the inventors on the related enzyme, A3G, has shown that inhibition of the C-terminal catalytic domain is mirrored by the inhibition of the full-length enzyme, validating their approach of using catalytic C-terminal domains for inhibitor development.^2
Using the 9-mer oligonucleotide ATTTCATTT (5′-AT3dCAT3) (SEQ ID NO: 1) as the standard substrate, the inventors compared the deamination of both terminally and internally cross-linked oligos prepared as above using a previously described real-time NMR assay.^1, 45 For the terminally cross-linked oligos, decreased rates of deamination were observed from 9-mer to 5-mer. The number of phosphates of the modified 9-mer sequence is the same as for the 9-mer DNA control (FIG. 5A). […] The next internal cross-link 2 was designed based on modified nucleotides dU^E and dA^N3. […] However, a marked 2.3 times increase in deamination rate was detected for oligo dC[C^N3(−2),H^E1(+1)]X having internal cross-link 3 connecting −2 and +1 positions in the DNA sequence (FIG. 5D). It is surprising that synthetic oligo dC[C^N3(−2),H^E1(+1)]X was deaminated even faster than a native DNA hairpin.
as §1

The target in experiment [6] is A3A-E72A (Homo sapiens, UniProt P31941, E72A). Nature of the experiment: Isothermal titration calorimetry (ITC), binding to A3A-E72A. Particulars: 25° C. The method, then:
as §2
Desalted unmodified DNA oligonucleotides were purchased (Integrated DNA Technologies) at 1 or 5 μmol synthesis scale and dissolved in one of the buffers described below to give 10 mM solutions. ITC experiments were conducted at 25° C. using a MicroCal ITC200 (now Malvern Instruments) isothermal titration calorimeter. […] The ratio of protein to oligonucleotide concentration is usually 1:10. Titrations are made up of 30 individual additions. To prevent protein precipitation during the long time-scale of the experiment it was necessary to used improved ITC buffers. ITC buffer 1: 50 mM MES, pH 6.0, 100 mM NaCl, 200 μM EDTA, 1 mM β-mercaptoethanol and ITC buffer 2: 50 mM Na^+/K^+ phosphate, pH 6.0, 50 mM NaCl, 50 mM choline acetate, 2.5 mM TCEP, 200 μM EDTA with 30 mg/mL BSA. After preparation, ITC buffer 2 was frozen and defrosted before the experiments. ITC buffer 2* is freshly prepared buffer 2.
In contrast, A3A-E72 Å was used, particularly for oligos containing dC so that the complications of deamination can be avoided, although this mutation, notwithstanding no change to active-site structure, does cause a small but significant diminution in ligand binding^1 through loss of hydrogen bonding to the ligand. The inventors expect that the binding of inactivated A3BCTD-QM-ΔL3-AL1swap to the substrate will be close to or even worse than Km of 200 μM, which places substrate binding outside ITC applicability. One should emphasise that the composition of buffers used for NMR kinetic and ITC binding experiments are different, mainly because proteins in ITC experiments need to be at much higher concentration than for kinetic assays (10-100 μM for ITC versus 20-300 nM in kinetic experiments).
A general note: In ITC the heat of successive injections is recorded.

The mark [7] stands for this setting: Lineweaver-Burk plot for the substrate/Dixon plot for the inhibitor.
The mark [8] stands for this setting: Non-linear regression analysis for both substrate and inhibitor.
The mark [9] stands for this setting: Linear analysis (Lineweaver-Burk plot).

Sequence of A3A-E72A (P31941 whole entry E72A): as the sequence (P31941 whole entry) above, with E72A counted along it
Sequence of human CDA (P32320 whole entry): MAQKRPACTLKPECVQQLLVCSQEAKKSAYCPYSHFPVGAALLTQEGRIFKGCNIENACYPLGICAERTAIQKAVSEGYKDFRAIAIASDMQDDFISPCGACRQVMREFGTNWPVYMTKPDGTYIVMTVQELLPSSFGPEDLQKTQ

In the case of `O=C1CC[C@H](O)CCN1[C@H]1C[C@H](O)[C@@H](CO)O1` [compound 34S, 1-[2-deoxy-β-D-erythro-pentofuranosyl]-(S)-5-hydroxyazepan-2-one], in experiment [1] (100 μM dC, pH 6.0, 25° C, with and without 5 min preincubation (FIG. 12)), the “inhibitory potential against human CDA” value is recorded as “some inhibitory potential”.

Take 5′-AT3FdZAT3 [FdZ-linear]: the Ki in experiment [2] was 2.4 ± 0.94 µM; in experiment [3] (setting [7]), 2.1 ± 0.8 µM; in experiment [3] (setting [8]) it was 4.4 ± 0.7 µM. The “inhibition of deamination of 5′-T4CAT (in words)” value in experiment [3] (400 μM 5′-T4CAT, 8 or 4 μM oligo, 300 or 200 nM enzyme, pH 6.0 (FIG. 6)) is reported as “more powerful inhibitor of A3BCTD-QM-ΔL3-AL1swap than dZ-linear oligo”. In experiment [3] (setting [8]), the Vmax came out at 0.0126 ± 0.0008 µM/s. In experiment [3], the “inhibition effect: Km of 5′-AT3dCAT3 (150 μM) compared with apparent Ki” value is recorded as 35 fold.

Turning to `O=c1ncccn1[C@H]1C[C@H](O)[C@@H](CO)O1` [dZ, 2′-deoxyzebularine], the Ki in experiment [1] amounted to 10.7 ± 0.5 µM.

In the case of 5'-TGCGCTT-46-GCGCT [46-hairpin-3], the Ki in experiment [2] was found to be 0.29 ± 0.04 µM.

Molecule 5′-AT3dZAT3 [dZ-linear] yielded a Ki in experiment [3] (setting [7]) of 7.5 ± 1.7 µM. In addition, in experiment [3] (setting [8]), affinity was put at a Ki of 7 ± 1.3 µM and the Vmax turned out to be 0.0126 ± 0.0008 µM/s. For the same molecule, the “inhibition effect: Km of 5′-AT3dCAT3 (150 μM) compared with apparent Ki” value in experiment [3] is 20 fold. Also, the Kd in experiment [4] was 11.4 ± 2.3 µM.

Take `O=C1NCC=CCN1[C@H]1C[C@H](O)[C@@H](CO)O1` [compound 46, 1-[2-deoxy-β-D-erythro-pentofuranosyl]-1,3,4,7-tetrahydro-2H-1,3-diazepin-2-one]: in experiment [1], the Ki amounted to 0.43 ± 0.08 µM.

On to ATTTCATTT [5′-AT3dCAT3], for which the Km in experiment [5] (setting [9]) was found to be 200 ± 30 µM; in experiment [5] (Non-linear regression analysis), 150 µM. Besides, the results for the Vmax in experiment [5] (setting [9]) and in experiment [5] (Non-linear regression analysis) were 0.014 ± 0.002 µM/s and 0.0126 ± 0.0008 µM/s, respectively. In addition, the kcat in experiment [5] (setting [9]) is 0.29 ± 0.04 s⁻¹; in experiment [5] (Non-linear regression analysis), 0.26 ± 0.02 s⁻¹. Besides, the Kd in experiment [6] (ITC buffer 1 (50 mM MES, pH 6.0)) was found to be 0.2 ± 0.06 µM; in experiment [6] (ITC buffer 2 (Na+/K+ phosphate, pH 6.0, BSA; frozen and defrosted)), 0.12 ± 0.03 µM; in experiment [6] (ITC buffer 2* (freshly prepared buffer 2)), 0.13 ± 0.03 µM.
